Measured values published in ChEMBL document CHEMBL5385848, “Discovery of novel hydroxyamidine based indoleamine 2,3-dioxygenase 1 (IDO1) and thioredoxin reductase 1 (TrxR1) dual inhibitors” (Eur J Med Chem, 2023).
Calls of active or inactive are those of the source. The calls are words filed in the database; no cut-off is given here.

How the values were obtained:
[1] = Cytotoxicity against human HeLa cells incubated for 48 hrs by CCK-8 assay; type: toxicity, cell-based
HCT-116 [2] = test: Antitumor activity against human HCT-116 cells xenografted in athymic nude BALB/c mouse assessed as reduction in mitosis of tumor cells at 15 to 60 mg/kg, ig administered daily for 28 days and measured every 4 days; type: functional, organism-based; details: dose 15-60 mg/kg, time 28.0 day
HeLa [3] = test: Cytotoxicity against IDO1 knockdown human HeLa cells incubated for 24 hrs by CCK-8 assay (reference value: 45.93 +/- 2.23 nM); type: functional, cell-based
HCT-116 [4] = test: Induction of apoptosis in human HCT-116 cells assessed as apoptotic rate at 5 uM pretreated with NAC incubated for 24 hrs by Annexin-V/PI staining based flow cytometry analysis (reference value: 9.8 +/- 1.59%); type: functional
HCT-116 [5] = test: Induction of ROS generation in human HCT-116 cells incubated for 4 hrs by DCFH-DA staining based flow cytometry analysis; type: functional, cell-based; details: dose 2.5-10 µM
HCT-116 [6] = test: Induction of apoptosis in human HCT-116 cells assessed as caspase-3 activation incubated for 24 hrs; type: functional, cell-based; details: dose 2.5-10 µM
[7] = Cytotoxicity against human HCT-116 cells incubated for 48 hrs by CCK-8 assay; type: toxicity, cell-based
CT26 [8] = test: Antitumor activity against mouse CT26 cells implanted in athymic nude BALB/c mouse assessed as reduction in proliferative nTreg lymphocytes at 15 to 60 mg/kg, ig administered daily for 28 days and measured every 4 days by immunofluorescence analysis; type: functional, organism-based; details: dose 15-60 mg/kg, time 28.0 day
[9] = biological target: Indoleamine 2,3-dioxygenase 1 (Mus musculus) (UniProt P28776); test: In vivo inhibition of IDO1 in BALB/c mouse implanted with mouse CT-26 cells assessed as increase in plasma Trp level at 60 mg/kg, po administered once daily by LC-MS/MS analysis; type: functional, organism-based
HCT-116 [10] = test: Antitumor activity against human HCT-116 cells xenografted in athymic nude BALB/c mouse assessed as increase in necrosis of tumor cells at 15 to 60 mg/kg, ig administered daily for 28 days and measured every 4 days; type: functional, organism-based; details: dose 15-60 mg/kg, time 28.0 day
[11] = biological target: Indoleamine 2,3-dioxygenase 1 (Mus musculus) (UniProt P28776); test: In vivo inhibition of IDO1 in C57BL/6 mouse assessed as increase in plasma Trp level at 60 mg/kg, po administered once daily by LC-MS/MS analysis; type: functional, organism-based
IDO1 = test: Selectivity ratio of IC50 for cytotoxicity against human HCT-116 cells to EC50 for inhibition of IDO1 in human HCT-116 cells; type: cell-based; details: read-out: Ratio IC50/EC50
HeLa [12] = test: Induction of cell cycle arrest in human HeLa cells assessed as G1/S phase arrest at 2.5 to 10 uM incubated for 24 hrs by PI staining based flow cytometry analysis; type: functional; details: dose 2.5-10 µM
HCT-116 [13] = test: Cytotoxicity against human HCT-116 cells transfected with IDO1 siRNA incubated for 24 hrs by CCK-8 assay (reference value: 3.49 +/- 0.28 uM); type: functional, cell-based; details: HCT-116, 24 h
[14] = biological target: T1, Indoleamine 2,3-dioxygenase 2 (Homo sapiens, UniProt Q6ZQW0); test: Inhibition of IDO2 (unknown origin) using D-Trp as substrate incubated for 1 hr
T1 sequence (Q6ZQW0 whole entry): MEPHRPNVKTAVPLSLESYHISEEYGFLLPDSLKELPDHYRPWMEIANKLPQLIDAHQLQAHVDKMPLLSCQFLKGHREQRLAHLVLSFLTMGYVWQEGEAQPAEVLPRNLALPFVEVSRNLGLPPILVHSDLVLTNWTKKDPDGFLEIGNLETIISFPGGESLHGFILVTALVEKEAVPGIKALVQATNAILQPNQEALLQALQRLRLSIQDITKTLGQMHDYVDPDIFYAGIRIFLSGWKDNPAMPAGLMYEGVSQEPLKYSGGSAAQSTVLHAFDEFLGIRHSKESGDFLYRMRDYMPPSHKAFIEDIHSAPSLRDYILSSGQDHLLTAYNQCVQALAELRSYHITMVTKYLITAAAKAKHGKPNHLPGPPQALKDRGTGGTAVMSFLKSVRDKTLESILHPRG

HCT-116 [15] = test: Induction of cell cycle arrest in human HCT-116 cells assessed as G1/S phase arrest at 2.5 to 10 uM pretreated with NAC for 2 hrs followed by compound addition and measured after 12 hrs by PI staining based flow cytometry analysis; type: functional; details: dose 2.5-10 µM
[16] = biological target: Indoleamine 2,3-dioxygenase 1 (Homo sapiens, UniProt P14902); test: Inhibition of recombinant human IDO1 using L-Trp as substrate incubated for 1 hr
HCT-116 [17] = test: Induction of cell cycle arrest in human HCT-116 cells assessed as G1/S phase arrest at 2.5 to 10 uM incubated for 24 hrs by PI staining based flow cytometry analysis; type: functional; details: dose 2.5-10 µM
HeLa [18] = test: Cytotoxicity against human HeLa cells transfected with IDO1 siRNA incubated for 24 hrs by CCK-8 assay (reference value: 9.74 +/- 1.64 uM); type: functional, cell-based
HeLa [19] = test: Induction of ROS generation in human HeLa cells incubated for 4 hrs by DCFH-DA staining based flow cytometry analysis; type: functional, cell-based; details: dose 2.5-10 µM
CT26 [20] = test: Antitumor activity against mouse CT26 cells implanted in […] BALB/c mouse assessed as increase in CD8 T lymphocytes at 15 to 60 mg/kg, ig administered daily for 28 days and measured every 4 days; type: functional, organism-based; details: dose 15-60 mg/kg, time 28.0 day
[21] = biological target: Indoleamine 2,3-dioxygenase 1 (Mus musculus) (UniProt P28776); test: In vivo inhibition of IDO1 in BALB/c mouse implanted with mouse CT-26 cells assessed as reduction in tumor Kyn level at 60 mg/kg, po administered once daily by LC-MS/MS analysis; type: functional, organism-based
HCT-116 [22] = test: Induction of apoptosis in human HCT-116 cells assessed as apoptotic rate at 5 uM incubated for 24 hrs by Annexin-V/PI staining based flow cytometry analysis; type: functional
[23] = biological target: Tryptophan 2,3-dioxygenase (Homo sapiens, UniProt P48775); test: Inhibition of TDO (unknown origin) using L-Trp as substrate incubated for 75 mins
[24] = Toxicity in athymic BALB/c mouse xenografted with human HCT-116 cells assessed as change in kidney morphology at 15 to 60 mg/kg, ig administered daily for 28 days and measured every 4 days; type: organism-based; details: in vivo, po, 672 h, dose 15-60 mg/kg, time 28 day
HCT-116 [25] = test: Cytotoxicity against human HCT-116 cells incubated for 24 hrs in presence of NAC CCK-8 assay; type: functional, cell-based; details: HCT-116, 24 h
CT26 [26] = test: Antitumor activity against mouse CT26 cells implanted in athymic nude BALB/c mouse assessed as increase in CTL proliferation by measuring Ki67 expression at 60 mg/kg, ig administered daily for 28 days and measured every 4 days by immunofluorescence analysis; type: functional, organism-based; details: time 28.0 day
HCT-116 [27] = test: Cytotoxicity against TrxR1 knockdown human HCT-116 cells incubated for 24 hrs by CCK-8 assay (reference value: 3.08 +/- 0.55 uM); type: functional, cell-based; details: HCT-116, 24 h
HCT-116 [28] = test: Induction of apoptosis in human HCT-116 cells assessed as apoptotic rate at 2.5 uM pretreated with NAC incubated for 24 hrs by Annexin-V/PI staining based flow cytometry analysis (reference value: 9.8 +/- 1.59%); type: functional
HCT-116 [29] = test: Antitumor activity against human HCT-116 cells xenografted in athymic nude BALB/c mouse assessed as increase in apoptotic cells at 15 to 60 mg/kg, ig administered daily for 28 days and measured every 4 days by tunel assay; type: functional, organism-based; details: dose 15-60 mg/kg, time 28.0 day

Indoleamine 2,3-dioxygenase 1 (Mus musculus), sequence (P28776 whole entry, looked up): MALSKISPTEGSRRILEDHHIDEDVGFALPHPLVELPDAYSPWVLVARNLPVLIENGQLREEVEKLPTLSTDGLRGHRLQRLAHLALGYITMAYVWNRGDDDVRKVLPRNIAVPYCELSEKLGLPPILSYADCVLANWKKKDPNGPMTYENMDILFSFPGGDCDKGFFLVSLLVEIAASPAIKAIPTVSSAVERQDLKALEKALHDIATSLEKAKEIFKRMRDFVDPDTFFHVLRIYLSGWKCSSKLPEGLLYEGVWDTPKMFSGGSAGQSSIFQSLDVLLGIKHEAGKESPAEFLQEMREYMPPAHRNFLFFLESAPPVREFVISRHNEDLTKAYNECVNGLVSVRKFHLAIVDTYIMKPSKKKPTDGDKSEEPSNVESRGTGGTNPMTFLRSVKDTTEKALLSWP
Tryptophan 2,3-dioxygenase, sequence (P48775 whole entry): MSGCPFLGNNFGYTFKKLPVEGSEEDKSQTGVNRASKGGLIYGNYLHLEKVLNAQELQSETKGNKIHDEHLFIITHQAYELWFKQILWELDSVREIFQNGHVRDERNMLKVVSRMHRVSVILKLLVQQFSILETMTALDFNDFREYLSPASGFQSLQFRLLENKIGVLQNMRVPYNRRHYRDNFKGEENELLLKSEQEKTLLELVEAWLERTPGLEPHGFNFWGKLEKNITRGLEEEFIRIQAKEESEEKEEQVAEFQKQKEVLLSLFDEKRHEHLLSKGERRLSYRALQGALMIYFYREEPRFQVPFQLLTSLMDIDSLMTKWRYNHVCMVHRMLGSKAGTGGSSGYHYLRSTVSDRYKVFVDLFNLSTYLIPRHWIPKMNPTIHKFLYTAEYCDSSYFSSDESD
Indoleamine 2,3-dioxygenase 1, sequence (P14902 whole entry): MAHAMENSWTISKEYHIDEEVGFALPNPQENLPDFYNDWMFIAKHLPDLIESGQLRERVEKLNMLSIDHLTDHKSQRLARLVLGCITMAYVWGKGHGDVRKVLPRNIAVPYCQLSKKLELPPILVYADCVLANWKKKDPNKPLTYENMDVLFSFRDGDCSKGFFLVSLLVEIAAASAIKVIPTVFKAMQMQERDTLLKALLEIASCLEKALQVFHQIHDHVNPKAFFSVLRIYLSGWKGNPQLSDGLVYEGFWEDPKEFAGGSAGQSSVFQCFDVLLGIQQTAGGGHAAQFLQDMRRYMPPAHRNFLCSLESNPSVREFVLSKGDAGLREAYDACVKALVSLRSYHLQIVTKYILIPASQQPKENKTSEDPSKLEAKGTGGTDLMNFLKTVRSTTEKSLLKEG

Activity [9]: Active
Activity [11]: Active
IC50 [14]: 22.2 µM
IC50 [16]: 0.05 µM
Activity [21]: Active
IC50 [23]: 54.2 µM
Structure (SMILES): O=C(Cc1ccc(O)cc1)Nc1nnc(CCCNc2nonc2/C(=N\O)Nc2ccc(F)c(Br)c2)s1
IC50 at 48 h [1]: 10.2 µM
Activity (HCT-116 [2]): Active
IC50 (HeLa [3]): 26.1 µM
Activity (HCT-116 [4]): 11.98%
Activity (HCT-116 [5]): Dose-Dependent Effect
Activity (HCT-116 [6]): Dose-Dependent Effect
IC50 at 48 h [7]: 3.44 µM
Activity (CT26 [8]): Active
Activity (HCT-116 [10]): Active
selectivity ratio (IDO1): 101
Activity (HeLa [12]): Active
IC50 (HCT-116 [13]): 3.79 µM
Activity (HCT-116 [15]): inactive
Activity (HCT-116 [17]): Active
IC50 (HeLa [18]): 10.1 µM
Activity (HeLa [19]): Dose-Dependent Effect
Activity (CT26 [20]): Active
Activity (HCT-116 [22]): 30.64%
Activity [24]: Non-Toxic
IC50 (HCT-116 [25]): 60.8 µM
Activity (CT26 [26]): Active
IC50 (HCT-116 [27]): 1.52 µM
Activity (HCT-116 [28]): 10.37%
Activity (HCT-116 [29]): Active
